In paper PMC11617668, “Developing Allosteric Inhibitors of SARS‐CoV‐2 RNA‐Dependent RNA Polymerase” (Chemmedchem, 2024):

target: SARS‐CoV‐2 RdRp complex (nsp12, nsp7, nsp8) (Severe acute respiratory syndrome coronavirus 2, UniProt P0DTD1); test: Fluorescence-based RdRp polymerase assay (SYBR Green I RNA extension); type: biochemical; settings: 10 μM screening; AUC with compound / AUC of non-inhibited reaction x 100

Compound	residual activity (RA) of the SARS‐CoV‐2 RdRp complex
O=C(Nc1cc(C(=O)O)cc(C(=O)O)c1)Nc1cccc([N+](=O)[O-])c1 [Compound 21, 5‐(3‐(3‐Nitrophenyl)ureido)isophthalic acid]	complete loss of activity
1‐(3,5‐Dichlorophenyl)‐3‐(3‐(Trifluoromethyl)phenyl)guanidine Hydrochloride [Compound 54]	100%

same assay, conditions: 50 min, read-out: residual activity (RA) of the SARS‐CoV‐2 RdRp complex

Compound	remaining activity at 10 µM
COC(=O)c1cc(NC(=O)Nc2ccc([N+](=O)[O-])cc2)cc(C(=O)OC)c1 [Compound 22]	50%
O=C(Nc1cccc([N+](=O)[O-])c1)NC1CC1 [Compound 40]	100%
O=C(Nc1cc(C(=O)O)cc(C(=O)O)c1)Nc1cccc([N+](=O)[O-])c1 [Compound 21, 5‐(3‐(3‐Nitrophenyl)ureido)isophthalic acid]	100%
COC(=O)c1cc(NC(=O)Nc2ccc(C)cc2)cc(C(=O)OC)c1 [Compound 25]	100%
O=C(Nc1cc(Cl)cc(Cl)c1)C(=O)Nc1cccc(C(F)(F)F)c1 [Compound 53, N ^1‐(3,5‐Dichlorophenyl)‐N ^2‐(3‐(Trifluoromethyl)phenyl)oxalamide]	100%
CCOC(=O)c1cccc(NC(=O)Nc2cc(C(=O)OC)cc(C(=O)OC)c2)c1 [Compound 10, Dimethyl 5‐(3‐(3‐(Ethoxycarbonyl)phenyl)ureido)isophthalate]	100%
O=C(Nc1cccc([N+](=O)[O-])c1)Nc1cccc([N+](=O)[O-])c1 [Compound 18, 1,3‐Bis(3‐nitrophenyl)urea]	100%
O=C(Nc1ccc(C(=O)O)cc1)Nc1cccc([N+](=O)[O-])c1 [Compound 34]	100%
CCCCNC(=O)Nc1cc(C(=O)OC)cc(C(=O)OC)c1 [Compound 5, Dimethyl 5‐(3‐Butylureido)isophthalate]	100%
COC(=O)c1cc(NC(=O)Nc2cccc(C#N)c2)cc(C(=O)OC)c1 [Compound 6, Dimethyl 5‐(3‐(3‐Cyanophenyl)ureido)isophthalate]	100%
O=C(Nc1cccc([N+](=O)[O-])c1)Nc1ccccc1Cc1ccccc1 [Compound 31]	78%
O=[N+]([O-])c1cccc(NC(=S)Nc2ccccc2Cc2ccccc2)c1 [Compound 44]	100%
COc1ccc(NC(=O)Nc2cc(C(=O)OC(C)C)cc(C(=O)OC(C)C)c2)c(OC)c1 [Compound 27]	100%
O=C(Nc1ccc([N+](=O)[O-])cc1)Nc1cc(Cl)cc(Cl)c1 [Compound 41]	40%
COC(=O)c1cc(NC(=O)Nc2cccc([N+](=O)[O-])c2)cc(C(=O)OC)c1 [Compound 17, Dimethyl 5‐(3‐(3‐Nitrophenyl)ureido)isophthalate]	51%
COC(=O)c1cc(NC(=O)Nc2ccc(S(N)(=O)=O)cc2)cc(C(=O)OC)c1 [Compound 8, Dimethyl 5‐(3‐(4‐Sulfamoylphenyl)ureido)isophthalate]	100%
COC(=O)c1cc(NC(=O)Nc2cccc(F)c2)cc(C(=O)OC)c1 [Compound 26]	100%
CC(=O)Nc1cccc(NC(=O)Nc2cccc([N+](=O)[O-])c2)c1 [Compound 37]	100%
O=C(Nc1ccc(Cl)cc1)Nc1cccc([N+](=O)[O-])c1 [Compound 33]	100%
O=C(Cc1cc(Cl)cc(Cl)c1)Nc1ccc([N+](=O)[O-])cc1 [Compound 52, 2‐(3,5‐Dichlorophenyl)‐N‐(4‐Nitrophenyl)acetamide]	100%
COC(=O)c1cc(NC(=O)Nc2cc([N+](=O)[O-])cc([N+](=O)[O-])c2)cc(C(=O)OC)c1 [Compound 12, Dimethyl 5‐(3‐(3,5‐Dinitophenyl)ureido)isophthalate]	100%
COC(=O)c1ccc(C(=O)OC)c(NC(=O)Nc2cccc([N+](=O)[O-])c2)c1 [Compound 36]	100%
CC(=O)c1cccc(NC(=O)Nc2cc(C(=O)OC(C)C)cc(C(=O)OC(C)C)c2)c1 [Compound 28]	100%
